Results as given in patent US11903959B2 (EMORY UNIVERSITY, priority 2017, dated 2024).
Like-named read-outs stand apart in the source and are kept apart here.

Key:
[1] = tested on: Influenza A/California/07/2009 (H1N1); design: species or system ferrets; settings: in vivo, po
in vitro [2] = settings: mouse, microsomes
in vitro [3] = settings: monkey, microsomes
in vitro [4] = settings: human, microsomes
[5] = tested on: Influenza A/Wisconsin/67/2005 (H3N2); design: species or system ferrets; settings: in vivo
in vitro [6] = settings: dog, microsomes
in vitro [7] = settings: rat, microsomes
[8] = cynomolgus monkey, in vivo, po; for AUC0->24 h / CL / Cmax / t1/2 / tmax: 0.4 mmol/kg
[9] = mouse, in vivo

| Compound | half-life (in vitro [3]) [min] | half-life (in vitro [4]) [min] | F ([8]; female) [%] | AUC0->24 h ([8]; female) [µM·h] | CL ([8]; female) [mL/min/kg] | t1/2 ([8]; female) [min] | tmax ([8]; female) [min] | AUC0->24 h ([8]; male) [µM·h] | CL ([8]; male) [mL/min/kg] | t1/2 ([8]; male) [min] | tmax ([8]; male) [min] | Plasma t1/2 (Plasma stability, monkey) [min] | Plasma t1/2 (Plasma stability, mouse) [min] | Plasma t1/2 (Plasma stability, human) [min] | also measured |
| --- | --- | --- | --- | --- | --- | --- | --- | --- | --- | --- | --- | --- | --- | --- | --- |
| CC(C)C(=O)OC[C@H]1O[C@@H](n2ccc(NO)nc2=O)[C@H](O)[C@@H]1O [EIDD-2801] | 1 | 73 | ~26 | 43.8 ± 17.0 | 172 ± 93.3 | 114 ± 78 | 75 ± 30 | 31.7 ± 7.82 | 217 ± 61.7 | 108 ± 54.6 | 120 ± 48.6 | – | – | – | Fever [1]: completely avoided; Viral titers in nasal lavage samples [1]: greatly reduced; viral titers in nasal lavage samples and fever [1]: rapidly reduce viral titers in nasal lavage samples as well as fever; half-life (in vitro [2]): 2 min; viral titers in nasal lavage and turbinates ([5]; 20 mg/kg): greatly reduced; Viral titers in nasal lavage, fever, and viral titers in turbinates ([5]; 100 mg/kg): greatly reduced; half-life (in vitro [6]): 1 min; half-life (in vitro [7]): 5 min; Cmax ([8]; female): 12.3 ± 2.33 µM; Cmax ([8]; male): 8.08 ± 1.32 µM |
| O=c1nc(NO)ccn1[C@@H]1O[C@H](COP(=O)(O)OP(=O)(O)OP(=O)(O)O)[C@@H](O)[C@H]1O [EIDD-2061] | – | – | – | – | – | – | – | – | – | – | – | – | – | – | AUC0->t (Huh-7 cells): 14640 pmol · h/M cells; Cmax (Huh-7 cells): 1113.3 pmol/M Cells; tmax (Huh-7 cells): 1440 min; AUC0->t (CEM cells): 2355 pmol · h/M cells; Cmax (CEM cells): 171.3 pmol/M Cells; tmax (CEM cells): 1440 min; AUC0->t (HepG2 cells): 299.8 pmol · h/M cells; Cmax (HepG2 cells): 470.3 pmol/M Cells; tmax (HepG2 cells): 960 min; Brain Cmax ([9]; 225 mg/kg): 3.5 nmol/g; Brain Cmax ([9]; 750 mg/kg): 5.5 nmol/g; AUC0->t (Vero cells): 13850 pmol · h/M cells; Cmax (Vero cells): 872.0 pmol/M Cells; tmax (Vero cells): 960 min |
| CC(C)C(=O)OC[C@H]1O[C@@H](n2ccc(NO)nc2=O)[C@H](OC(=O)C(C)C)[C@@H]1OC(=O)C(C)C [EIDD-2800] | 2 | 1 | ~16 | 27.4 ± 11.5 | 265 ± 128 | 264 ± 72 | 18.6 ± 7.2 | 38.9 ± 7.58 | 152 ± 21.7 | 330 ± 252 | 22.2 ± 8.4 | 2 | 1 | 1 | – |
| CC(C)[C@H](N)C(=O)OC[C@H]1O[C@@H](n2ccc(NO)nc2=O)[C@H](O)[C@@H]1O [EIDD-2898] | – | – | – | – | – | – | – | – | – | – | – | 138 | 144 | 198 | F [8]: ~15%; F* [8]: ~18% |
